Test results from patent publication US20130202619A1, “METHODS AND MATERIALS FOR REDUCING LIVER FIBROSIS” (MAYO FOUNDATION FOR MEDICAL EDUCATION AND RESEARCH, priority 2010, published 2013).
Values joined by “and” are separate entries in the source; they are usually repeats but may differ in a detail not shown here. Equal entries are not always repeated. “Also recorded” adds a separate entry of the source.

Experiments:
Type in all cases: cell-based, human
HuH7 cells [1] = assay: Lumican gene expression in HuH7 cells exposed to free fatty acids (real-time PCR); details: 400 μM fatty acid, 6 hours
Experimental: (§1) The hepatocyte cell line HuH7, the cholangiocyte cell line H69, and the hepatic stellate cell line LX2 were grown to confluence in DMEM with 10% fetal bovine serum and antibiotics Penicillin (100 U/mL) and Streptomycin (10 μg/mL) at 37° C. and 5% CO2 Cells were harvested, washed in cold phosphate buffered saline and snap frozen. […] At 24, 48 and 72 hours, cells were trypsin digested, washed three times with ice cold phosphate buffered saline and quick frozen at −80° C. in two separate lots for either protein or RNA extraction. In separate experiments, palmitic or stearic acid was added to the culture media of HuH7 cells at a concentration of 400 μM (Cazanave et al., J. Biol. Chem., 284:26591-26602 (2009)). All experiments were carried out in triplicate and results are reported as the average of triplicates.
(§2) Total RNA was isolated from cells collected from the cell culture experiments (described herein) or from liver tissue samples collected from patient or from mouse experiments (described herein) using the RNeasy Plus kit as per the manufacturer's instructions (Qiagen, GmbH, Germany). 500 ng of total RNA was reverse transcribed into cDNA using random hexamers (Transcriptor High Fidelity cDNA synthesis kit, Roche, USA). Real time PCR was carried on a LightCycler (Roche, CA, USA) using equal quantities of template cDNA in a total volume of 20 μL using Lightcycler FastStart DNA Master SYBR green1 (Roche, Indianapolis, USA). Expression of 18S rRNA was used as the internal standard (Quantum RNA 18S Internal Standards, Ambion Inc, Austin, Tex., USA). Standard curves were generated for each optimized assay using known PCR copy numbers to produce a linear plot of threshold cycle (Ct) against log dilution. Data for lumican is presented as lumican copy number normalized against the 18S absolute copy number where indicated. For all other gene expression assays, results are presented as fold change as represented by the expression 2^−ΔΔCt (Schmittgen & Livak, Nat. Protoc., 3:1101-1108 (2008)).
Gene expression data presented as copy number are expressed as mean±standard error. […]

HuH7 cells [2] = assay: Response of HuH7 cells to TGFβ1 (gene expression by real-time PCR, cell fate)
Experimental: as §1, §2
(§3) HuH7 or LX2 cells were plated at uniform density in single well chamber slides adopting the same protocol as for cell culture described above. At time points of 0, 24, 48, and 72 hours post seeding, medium was aspirated, slides were washed with phosphate buffered saline, air dried and stored at −80° C. until staining. Briefly, cells were fixed in acetone, followed by 1% paraformaldehyde. Cells were immunostained with anti human lumican at dilution of 1:50 (Santa Cruz, USA) and detected with appropriate FITC labeled secondary antibodies (MP Biomedicals, OH, USA). Negative controls consisted of identical treatments with omission of primary antibody. DAPI was used for nuclear staining (Sigma, MO, USA). Images were captured on an Olympus microscope with appropriate filter settings for FITC (green) and DAPI (blue).
(§4) Gene expression data presented as copy number are expressed as mean±standard error. Fold changes represent values normalized to 18S and to time point of 0 hours. To assess significance of difference between treatments, the paired 2-tailed student's test with equal variance was used. A p value of <0.05 was considered statistically significant.

LX2 cells = assay: Response of LX2 cells to TGFβ1 (gene expression by real-time PCR, cell fate)
Experimental: as §1, §2, §3, §4

[3] = HuH7 cells, TGFβ1 2 ng/mL, 48 hours

For `CCCCCCCCCCCCCCCC(=O)O` [palmitic acid], the “increase in lumican expression” value (HuH7 cells [1]) was 3.1 fold and the “increase in lumican expression” value (HuH7 cells [1]; listed as palmitic) was “three fold”.
With `CCCCCCCCCCCCCCCCCC(=O)O` [stearic acid] the “increase in lumican expression” value (HuH7 cells [1]) was 1.9 fold and 2 fold.
“TGFβ1: pro-fibrotic cytokine transforming growth factor β1 (R&D systems), used at 2 ng/mL” was tested, and the “increase in collagen 1α1 gene expression” value (HuH7 cells [2]; HuH7 cells, TGFβ1 2 ng/mL, 24 hours) was 9 fold, the “increase in collagen 1α1 gene expression” value (HuH7 cells [2]; [3]) was greater than 100 fold and the “increase in lumican gene expression” value (HuH7 cells [2]; [3]) was “four fold”. The “increase in lumican gene expression over baseline” value (HuH7 cells [2]; HuH7 cells, TGFβ1 2 ng/mL, 72 hours) was 15 fold and 14 fold, the “cell fate (apoptosis / proliferation)” value (HuH7 cells [2]; HuH7 cells, TGFβ1 2 ng/mL, over 72 hours) was “underwent apoptosis” and the “decrease in albumin production” value (HuH7 cells [2]; HuH7 cells, TGFβ1, 24 hours) was 10 fold. The “increase in alpha smooth muscle actin expression” value (HuH7 cells [2]; HuH7 cells, TGFβ1, 48 hours) was “fourfold; also recorded: four fold”, the “decrease in albumin production” value (HuH7 cells [2]; HuH7 cells, TGFβ1, 48 hours (48-72 hours)) was “five fold; also recorded: four fold” and the “beta 1 integrin expression” value (HuH7 cells [2]; HuH7 hepatocytes, TGFβ1 2 ng/mL, up to 72 hours) was “no change”. The “increase in lumican gene expression over baseline” value (LX2 cells; LX2 cells, TGFβ1 2 ng/mL, 72 hours) was 27 fold, the “cell fate (apoptosis / proliferation)” value (LX2 cells; LX2 cells, TGFβ1 2 ng/mL, over 72 hours) was “continued to proliferate” and the “increase in alpha smooth muscle actin expression” value (LX2 cells; LX2 cells, TGFβ1, 48 hours) was 4.5 fold. For the same molecule, the “increase in collagen 1α1 gene expression” value (LX2 cells; LX2 stellate cells, TGFβ1 2 ng/mL, 24 hours) was 4 fold, the “increase in collagen 1α1 gene expression” value (LX2 cells; LX2 stellate cells, TGFβ1 2 ng/mL, 48 hours) was 5 fold and the “beta 1 integrin expression” value (LX2 cells; LX2 stellate cells, TGFβ1 2 ng/mL, up to 72 hours) was “gradual increase”.
